Reference: patent US20140315797A1, “Novel N-Terminally Modified Insulin Derivatives” (priority 2010, published 2014)
Read-outs that look alike come from different tables or passages of the source. Starred links: 1 amine or outer side, 2 acyl side, 3 side chain; linkers in the order of their positions; H or OH if unused. Positions of bridges follow the written chain, without caps; N, C: chain ends. Groups on a side chain read outwards from the residue. Chains are numbered I, II in the order given. No end group written: not given here. *: point of attachment. Phe(Nα-CONH2) = NC(=O)N[C@@H](Cc1ccccc1)C(=O)*; C20 diacid = O=C(O)CCCCCCCCCCCCCCCCCCC(=O)*; C18 diacid = O=C(O)CCCCCCCCCCCCCCCCC(=O)*; C16 diacid = O=C(O)CCCCCCCCCCCCCCC(=O)*; NMe2Phe = CN(C)[C@@H](Cc1ccccc1)C(=O)*; γGlu = O=C(O)[C@H](CCC(=O)[*:2])N[*:1]; X1 = CCN(CC)[C@@H](Cc1ccccc1)C(=O)*; Hydantoyl = NC(=O)NCC(=O)*; AEEA = NCCOCCOCC(=O)O; Me2Gly = CN(C)CC(=O)*; X2 = CCN(CC)CC(=O)*

What was measured:
primary rat adipocytes = test: Lipogenesis in rat adipocytes; type: cell-based; conditions: relative potency vs human insulin, unit %
Experimental: As a measure of in vitro potency of the insulins of the invention, lipogenesis can be used.
Primary rat adipocytes are isolated from the epididymale fat pads and incubated with 3H-glucose in buffer containing e.g. 0.1% fat free HSA and either standard (human insulin, HI) or insulin of the invention. The labelled glucose is converted into extractable lipids in a dose dependent way, resulting in full dose response curves.

[1] = molecular target: T1, human insulin receptor (IR-A) (Homo sapiens, UniProt P06213); test: Insulin receptor affinity, SPA antibody capture assay, 0% HSA; type: binding; conditions: relative to affinity of human insulin
Experimental: (§1) The affinity of the acylated insulin analogues of this invention for the human insulin receptor is determined by a SPA assay (Scintillation Proximity Assay) microtiterplate antibody capture assay. SPA-PVT antibody-binding beads, anti-mouse reagent (Amersham Biosciences, Cat No. PRNQ0017) are mixed with 25 ml of binding buffer (100 mM HEPES pH 7.8; 100 mM sodium chloride, 10 mM MgSO4, 0.025% Tween-20). Reagent mix for a single Packard Optiplate (Packard No. 6005190) is composed of 2.4 μl of a 1:5000 diluted purified recombinant human insulin receptor (either with or without exon 11), an amount of a stock solution of A14Tyr[^125I]-human insulin corresponding to 5000 cpm per 100 μl of reagent mix, 12 μl of a 1:1000 dilution of F12 antibody, 3 ml of SPA-beads and binding buffer to a total of 12 ml. A total of 100 μl reagent mix is then added to each well in the Packard Optiplate and a dilution series of the insulin derivative is made in the Optiplate from appropriate samples. The samples are then incubated for 16 hours while gently shaken. The phases are the then separated by centrifugation for 1 min and the plates counted in a Topcounter. The binding data were fitted using the nonlinear regression algorithm in the GraphPad Prism 2.01 (GraphPad Software, San Diego, Calif.) and affinities are expressed relative (in percentage (%)) to the affinity of human insulin.

[2] = molecular target: T1, human insulin receptor (IR-A); conditions: relative to affinity of human insulin; […] HSA in binding buffer
Experimental: as §1
A related assay is also used wherein the binding buffer also contains 1.5% HSA in order to mimic physiological conditions

[3] = Chemical stability of insulin analogues formulated in lipid formulations (UPLC purity, SEC HMWP); type: physicochemical; conditions: lipid formulation
Experimental: Chemical stability of insulin analogues formulated in lipid formulations was assessed according to the protocol described here.
Composition of the formulation: […]
Insulin to be tested (75 μM)
The insulin to be tested (lyophilised from pH 7.5) is dissolved in propylenglycol in the dark for 16 hours. Diglycerol caprylate is added ad the mixture is stirred. Tween 20 is added and the mixture is stirred for 5 minutes. The mixture is gently agitated until it is homogeneous.
Extraction-mix: 1-butanol+0.1% (w/w) Tween80, 0.1M Na2HPO4/NaH2PO4 pH 7.0 • 1. The formulations are allowed to reach room temperature. • 2. To each Eppendorf tube 20 μl of the formulations are added. • 3. Add 490 μl 1-butanol followed by addition of 990 μl of the phosphate buffer. Vortex and incubate at RT for 30 min. • 4. Vortex again and centrifuge at RT at 14000 rpm for 20 min. Analyse the bottom aqueous phase for purity and HMWP formation.
Alternatively another extraction method can be used: • 1. The formulations are allowed to reach room temperature. • 2. To each Eppendorf tube 50 μl of the formulations are added. • 3. Add 950 μl of extraction buffer. Vortex well. Immediately after, load 800 μl (2×400 μl) for purification on the spin column. See spin protocol below. Ion Exchange on Q Spin Columns from Sartorius
(In the following all spin steps are for 5 min at 2000×g.) • 1. Apply 400 μl equilibration buffer to each spin column, and spin. Discard the flow-through. • 2. Apply 2×400 μl of each extracted sample. Spin the column between each application. Discard the flow-through. • 3. Apply 400 μl washing buffer to wash each spin column, and spin. Discard the wash. • 4. Apply 400 μl elution buffer to each spin column, and spin. Analyse the elution for purity and HMWP formation
Column: Waters BEH Shield RP18 UPLC column (2.1×100 mm, 1.7 μm)
Buffer A: 0.09M di-ammonium hydrogen phosphate pH 3.0, 10% (v/v) acetonitrile
Buffer B: 90% acetonitrile.
Column: Waters Insulin HMWP SEC column
Buffer: 500 mM NaCl, 10 mM NaH2PO4, 5 mM H3PO4, 50% (v/v) 2-propanol

[4] = Hydrophobicity by isocratic reverse phase HPLC (k'rel); type: physicochemical; conditions: human insulin = 1, RP-HPLC pH 7.3
Experimental: The elution time of the insulin derivative is compared to that of human insulin (herein designated HI) or another derivative with a known hydrophibicity under the same conditions. The hydrophobicity, k′rel, is calculated as: k′relderiv=((tderiv−t0)/(tref−t0))*k′relref. Using HI as reference: k′relref=k′relHI=1. The void time of the HPLC system, t0, is determined by injecting 5 μl of 0.1 mM NaNO3. Running conditions:
Column: Lichrosorb RP-C18, 5 μm, 4×250 mm
Buffer A: 0.1 M natrium phosphate pH 7.3, 10 vol % CH3CN
After running an initial gradient, the isocratic level for running the derivative and reference (for example HI) is chosen, and the elution times of the derivative and reference under isocratic conditions are used in the above equation to calculate k′relderiv.

duodenum lumen enzymes [5] = test: Degradation of insulin analogs using duodenum lumen enzymes; conditions: degradation half time divided by that of reference insulin; rat duodenum enzymes, pH 7.4, 37° C.
Experimental: (§2) Degradation of insulin analogs using duodenum lumen enzymes (prepared by filtration of duodenum lumen content) from SPD rats. The assay is performed by a robot in a 96 well plate (2 ml) with 16 wells available for insulin analogs and standards. Insulin analogs ˜15 μM are incubated with duodenum enzymes in 100 mM Hepes, pH=7.4 at 37° C., samples are taken after 1, 15, 30, 60, 120 and 240 min and reaction quenched by addition of TFA. Intact insulin analogs at each point are determined by RP-HPLC. Degradation half time is determined by exponential fitting of the data and normalized to half time determined for the reference insulins, A14E, B25H, desB30 human insulin or human insulin in each assay. The amount of enzymes added for the degradation is such that the half time for degradation of the reference insulin is between 60 min and 180 min.

duodenum lumen enzymes [6] = conditions: pH 7.4
Experimental: as §2

T1 sequence (P06213 28-746 isoform P06213-2 limits assumed): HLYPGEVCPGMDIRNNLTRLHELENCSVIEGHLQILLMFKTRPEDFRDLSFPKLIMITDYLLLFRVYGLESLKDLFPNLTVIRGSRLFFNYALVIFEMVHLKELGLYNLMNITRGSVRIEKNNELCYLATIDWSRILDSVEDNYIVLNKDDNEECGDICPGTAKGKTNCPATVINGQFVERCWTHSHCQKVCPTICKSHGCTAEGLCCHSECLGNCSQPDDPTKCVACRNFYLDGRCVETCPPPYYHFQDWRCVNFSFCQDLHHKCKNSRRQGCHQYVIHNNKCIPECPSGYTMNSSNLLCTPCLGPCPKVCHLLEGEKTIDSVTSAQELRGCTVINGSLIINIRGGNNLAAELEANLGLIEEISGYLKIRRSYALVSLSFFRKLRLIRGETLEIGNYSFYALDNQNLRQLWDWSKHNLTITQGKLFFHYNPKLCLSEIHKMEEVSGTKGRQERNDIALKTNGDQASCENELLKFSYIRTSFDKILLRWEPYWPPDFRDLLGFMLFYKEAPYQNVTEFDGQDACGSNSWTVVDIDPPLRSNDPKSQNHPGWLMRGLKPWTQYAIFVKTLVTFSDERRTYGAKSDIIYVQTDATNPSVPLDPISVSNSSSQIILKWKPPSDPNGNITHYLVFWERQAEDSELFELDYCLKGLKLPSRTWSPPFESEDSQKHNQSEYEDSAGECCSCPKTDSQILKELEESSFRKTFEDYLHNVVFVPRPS
T1 sequence (P06213 763-1382 partner limits assumed): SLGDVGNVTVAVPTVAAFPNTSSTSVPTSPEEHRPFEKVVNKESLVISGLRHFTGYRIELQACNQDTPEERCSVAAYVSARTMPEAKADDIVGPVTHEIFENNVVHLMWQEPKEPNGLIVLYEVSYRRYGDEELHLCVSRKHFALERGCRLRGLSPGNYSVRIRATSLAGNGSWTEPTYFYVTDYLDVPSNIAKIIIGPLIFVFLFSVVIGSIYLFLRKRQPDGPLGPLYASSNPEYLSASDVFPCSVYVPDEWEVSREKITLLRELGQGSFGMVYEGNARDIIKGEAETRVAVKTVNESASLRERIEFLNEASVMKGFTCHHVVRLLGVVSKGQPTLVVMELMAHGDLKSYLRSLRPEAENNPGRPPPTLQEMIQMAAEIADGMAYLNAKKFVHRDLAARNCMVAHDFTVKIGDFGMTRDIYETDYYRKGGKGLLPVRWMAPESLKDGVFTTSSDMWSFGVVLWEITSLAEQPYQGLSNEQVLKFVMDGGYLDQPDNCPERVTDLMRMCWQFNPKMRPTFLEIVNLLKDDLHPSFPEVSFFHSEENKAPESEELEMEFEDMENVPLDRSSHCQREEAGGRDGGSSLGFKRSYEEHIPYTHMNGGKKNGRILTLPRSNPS

| Substance | Lipogenesis in rat adipocytres (@ 0.1% HSA) rel. to human insulin (primary rat adipocytes) | Relative IR-A affinity (@ 0% HSA) (%) [1] | Relative IR-A affinity (@ […] HSA) (%)e [2] | Duodenum degradation. Relative stability vs. A14E, B25H, desB30 human insulin (duodenum lumen enzymes [5]) | further results |
| --- | --- | --- | --- | --- | --- |
| A1(N,N-Dimethyl), A14E, B1(N,N-dimethyl), desB27, B29K(N^εoctadecanedioyl-gGlu-2xOEG), desB30 human insulin [Example 6] | 0.60% | 17.0% | 0.98% |  |  |
| A1(N^αDiglycolyl), A14E, B1(N^αdiglycolyl), B25H, desB27, B29K(N^εoctadecanedioyl-gGlu-2xOEG), desB30 human insulin [Example 59] |  |  |  |  | HMWP formed (%) 2 weeks ([3]; 25° C.): 0.1%; Impurities formed (%) 2 weeks ([3]; 25° C.): 2.4% |
| A1G(N^α, N^α-Dimethyl), A14E, B1F(N(alpha), N(N^α, N^α-dimethyl), B25H, desB27, B29K(N^εhexadecanedioyl-gGlu-2xOEG), desB30 human insulin [Example 9] | 1.34% | 2.5% | 0.33% | 9.2 | Hydrophobicity rel. to human insulin [4]: 0.10 |
| I: NMe2Phe-VNQHLCGSHLVEALHLVCGERGFHYTPK([γGlu-C16 diacid]) / II: Me2Gly-IVEQCCTSICSLEQLENYCN (disulfide I:6-II:6, I:18-II:19, II:5-II:10) [Example 3, A1(N^α,N^α-Dimethyl), A14E, B1(N^α, N^α-dimethyl), B16H, B25H, B29K(N^εhexadecanedioyl-gGlu), desB30 human insulin] |  | 0.6% | 0.06% | 3.1 |  |
| I: NMe2Phe-VNQHLCGSHLVEALYLVCGERGFHYTPK([AEEA-AEEA-γGlu-C18 diacid]) / II: Me2Gly-IVEQCCTSICSLEQLENYCN (disulfide I:6-II:6, I:18-II:19, II:5-II:10) [Example 1, A1(N^α, N^α-Dimethyl), A14E, B1(N^α, N^α-dimethyl), B25H, B29K(N^εoctadecanedioyl-gGlu-2xOEG), desB30 human insulin] | 0.10% | 1.5% | 0.09% | 1.2 | Hydrophobicity rel. to human insulin [4]: 0.38; HMWP formed (%) 4 weeks ([3]; 30° C.): 0.4%; Impurities formed (%) 4 weeks ([3]; 30° C.): 9.8% |
| I: X1-VNQHLCGSHLVEALYLVCGERGFHYTPK([AEEA-AEEA-γGlu-C18 diacid]) / II: X2-IVEQCCTSICSLEQLENYCN (disulfide I:6-II:6, I:18-II:19, II:5-II:10) [Example 2, A1(N^α,N^α-Diethyl), A14E, B1(N^α, N^α-diethyl), B25H, B29K(N^εOctadecanedioyl-gGlu-2xOEG), desB30 human insulin] |  | 1.7% | 0.05% |  | HMWP formed (%) 2 weeks ([3]; 25° C.): 0.0%; Impurities formed (%) 2 weeks ([3]; 25° C.): 1.7%; HMWP formed (%) 4 weeks ([3]; 25° C.): 0.1%; Impurities formed (%) 4 weeks ([3]; 25° C.): 3.2%; Duodenum degradation. Relative stability vs. A14E, B25H, desB30 human insulin (duodenum lumen enzymes [6]): 0.8 |
| I: {Phe(Nα-CONH2)}-VNQHLCGSHLVEALHLVCGERGFFYPK([AEEA-AEEA-γGlu-C20 diacid]) / II: Hydantoyl-IVEQCCTSICSLEQLENYCN (disulfide I:6-II:6, I:18-II:19, II:5-II:10) [Example 22] |  |  |  | 7.7 |  |
| I: {Phe(Nα-CONH2)}-VNQHLCGSHLVEALHLVCGERGFHYTPK([AEEA-AEEA-γGlu-C20 diacid]) / II: Hydantoyl-IVEQCCTSICSLEQLENYCN (disulfide I:6-II:6, I:18-II:19, II:5-II:10) [Example 16, A1(N^α-Carbamoyl), A14E, B1(N^α-Carbamoyl), B16H, B25H, B29K(N^εeicosanedioyl-gGlu-2xOEG), desB30 human insulin] |  | 0.1% | 0.01% | 0.4 |  |
| I: {Phe(Nα-CONH2)}-VNQHLCGSHLVEALYLVCGERGFHYPK([AEEA-AEEA-γGlu-C20 diacid]) / II: Hydantoyl-IVEQCCTSICSLEQLENYCN (disulfide I:6-II:6, I:18-II:19, II:5-II:10) [Example 28, A1G(N^αcarbamoyl), A14E, B1F(N^αcarbamoyl), B25H, desB27, B29K(N^εeicosanedioyl-gGlu-2xOEG), desB30 human insulin] |  | 0.7% | 0.25% | 2.1 |  |
| I: {Phe(Nα-CONH2)}-VNQHLCGSHLVEALYLVCGERGFHYTPK([AEEA-AEEA-γGlu-C18 diacid]) / II: Hydantoyl-IVEQCCTSICSLEQLENYCN (disulfide I:6-II:6, I:18-II:19, II:5-II:10) [Example 12, A1(N^αCarbamoyl), A14E, B1(N^αCarbamoyl), B25H, B29K(N^εoctadecanedioyl-gGlu-2xOEG), desB30 human insulin] | 0.02% | 0.3% | 0.06% | 1.5 | Hydrophobicity rel. to human insulin [4]: 0.15; HMWP formed (%) 4 weeks ([3]; 30° C.): 0.2%; Impurities formed (%) 4 weeks ([3]; 30° C.): 4.4% |
| I: {Phe(Nα-CONH2)}-VNQHLCGSHLVEALYLVCGERGFHYTPK([AEEA-AEEA-γGlu-C20 diacid]) / II: Hydantoyl-IVEQCCTSICSLEQLENYCN (disulfide I:6-II:6, I:18-II:19, II:5-II:10) [Example 15, A1(N^αCarbamoyl), A14E, B1(N^αCarbamoyl), B25H, B29K(N^εeicosanedioyl-gGlu-2xOEG), desB30 human insulin] |  | 0.2% | 0.02% | 0.6 |  |
